# Source: patent US20140186376A1, “Compositions and Methods for Inhibiting CCL3” (University of Rochester, priority 2012, published 2014)
# System: osteoclasts
# Assay: Zoledronic acid treatment of normal mice: serum bone markers (ELISA) and micro-CT bone volumes
# Type: in vivo
# Conditions: normal ZA-treated mice; 0.25 mg/kg i.p. bi-weekly; vehicle 142±28; p=0.0296
# Procedure: The right hindlimb of each mouse was fixed in 10% Formalin for 48 hours, and then stored in 70% ethanol at 4° C. MicroCT analysis was performed as previously described (2009, Frisch et al., Blood 114:4054-4063).
# All ELISAs were performed as indicated by the manufacturer's instructions. CTX measurements were performed using the RatLaps ELISA (AC-06F1, Immunodiagnostic Systems Inc.). TRACP 5b measurement was performed using Mouse TRAP ELISA (SB-TR103, Immunodiagnostic Systems Inc.). Osteocalcin measurement performed using the Mouse Osteocalcin EIA kit (BT-470, Biomedical Technologies). Bovine CTX from bone wafer culture media was measured using the Crosslaps® for Culture ELISA (AC-07F1, Immunodiagnostic Systems Inc.). Murine CCL3 protein measurement was performed using the Mouse CCL3/MIP-1 alpha Quantikine ELISA Kit (MMA00, R&D systems). Human CCL3 protein measurement was performed using the Human CCL3/MIP-1 alpha Quantikine ELISA Kit (DMA00, R&D systems).
# Mice were given a 0.25 mg/kg intraperitoneal injection of zoledronic acid (ZA) bi-weekly for 2 weeks prior to induction of disease and throughout the course of the disease.
compound,measurement,value
"O=P(O)(O)C(O)(Cn1ccnc1)P(=O)(O)O [ZA, Zoledronic acid]",serum levels of osteocalcin,49 ± 1 ng/mL
